pIC50: −log10 of the molar value.
Target: CDK2/Cyclin E1 (Homo sapiens (Human), UniProt P24941)
Assay: CDK2/Cyclin E1 HTRF enzyme activity assay
Assay type: biochemical
Conditions: 1 mM ATP
Method: Assays are conducted in white 384-well polystyrene plates in a final reaction volume of 8 μL. […] HTRF signals are read after 1 hour at room temperature on a PHERAstar FS plate reader (BMG Labtech). Data is analyzed with IDBS XLFit and GraphPad Prism 5.0 software using a three or four parameter dose response curve to determine IC50 for each compound.

Row | pIC50 | Compound
1 | > 7.30 | [2H]C([2H])([2H])NCc1ccc(-n2cc(-c3nc(NC4CCN(S(=O)(=O)CC)CC4)ncc3C#N)cn2)c(Cl)c1 [Example 139, 4-(1-(2-Chloro-4-(((methyl-d3)amino)methyl)phenyl)-1H-pyrazol-4-yl)-2((1-(ethylsulfonyl)piperidin-4-yl)amino)pyrimidine-5-carbonitrile]
2 | > 7.30 | [2H]C(NC([2H])([2H])[2H])c1ccc(-n2cc(-c3nc(NC4CCN(S(=O)(=O)CC)CC4)ncc3C#N)cn2)c(Cl)c1 (centres unmarked) [Example 140, 4-(1-(2-Chloro-4-(((methyl-d3)amino)methyl-d)phenyl)-1H-pyrazol-4-yl)-2-((1-(ethylsulfonyl)piperidin-4-yl)amino)pyrimidine-5-carbonitrile]
3 | > 7.30 | [2H]C([2H])([2H])NCc1ccc(-n2cc(-c3nc(NC4CCN(S(=O)(=O)C5CC5)CC4)ncc3C#N)cn2)c(Cl)c1 [Example 141, 4-(1-(2-Chloro-4-(((methyl-d3)amino)methyl)phenyl)-1H-pyrazol-4-yl)-2-((1-(cyclopropylsulfonyl)piperidin-4-yl)amino)pyrimidine-5-carbonitrile]
4 | > 7.30 | [2H]C([2H])([2H])NCc1ccc(-n2cc(-c3nc(NC4CCN(S(=O)(=O)c5ccn(C)n5)CC4)ncc3C#N)cn2)c(Cl)c1 [Example 142, 4-(1-(2-Chloro-4-(((methyl-d3)amino)methyl)phenyl)-1H-pyrazol-4-yl)-2-((1-((1-methyl-1H-pyrazol-3-yl)sulfonyl)piperidin-4-yl)amino)pyrimidine-5-carbonitrile]
5 | > 7.30 | [2H]C([2H])([2H])NCc1ccc(-n2cc(-c3nc(N[C@H]4CCN(S(C)(=O)=O)C[C@H]4F)ncc3C#N)cn2)c(Cl)c1 [Example 143, 4-(1-(2-Chloro-4-(((methyl-d3)amino)methyl)phenyl)-1H-pyrazol-4-yl)-2-(((3R,4S)-3-fluoro-1-(methylsulfonyl)piperidin-4-yl)amino)pyrimidine-5-carbonitrile]
6 | > 7.30 | [2H]C([2H])([2H])NCc1ccc(-n2cc(-c3nc(N[C@H]4CCN(S(=O)(=O)CC)C[C@H]4F)ncc3C#N)cn2)c(Cl)c1 [Example 144, 4-(1-(2-Chloro-4-(((methyl-d3)amino)methyl)phenyl)-1H-pyrazol-4-yl)-2-(((3R,4S)-1-(ethylsulfonyl)-3-fluoropiperidin-4-yl)amino)pyrimidine-5-carbonitrile]
7 | > 7.30 | [2H]C([2H])([2H])NCc1ccc(-n2cc(-c3nc(N[C@H]4CCN(S(=O)(=O)C5CC5)C[C@H]4F)ncc3C#N)cn2)c(Cl)c1 [Example 145, 4-(1-(2-Chloro-4-(((methyl-d3)amino)methyl)phenyl)-1H-pyrazol-4-yl)-2-(((3R,4S)-1-(cyclopropylsulfonyl)-3-fluoropiperidin-4-yl)amino)pyrimidine-5-carbonitrile]
8 | > 7.30 | [2H]C([2H])([2H])NCc1ccc(-n2cc(-c3nc(N[C@H]4CCN(S(=O)(=O)C5CC5)C[C@H]4C)ncc3C#N)cn2)c(Cl)c1 [Example 146, 4-(1-(2-Chloro-4-(((methyl-d3)amino)methyl)phenyl)-1H-pyrazol-4-yl)-2-(((3R,4S)-1-(cyclopropylsulfonyl)-3-methylpiperidin-4-yl)amino)pyrimidine-5-carbonitrile]
9 | > 7.30 | [2H]C([2H])([2H])NCc1ccc(-n2cc(-c3nc(N[C@H]4CCN(S(=O)(=O)c5ccn(C)n5)C[C@H]4C)ncc3C#N)cn2)c(Cl)c1 [Example 147, 4-(1-(2-Chloro-4-(((methyl-d3)amino)methyl)phenyl)-1H-pyrazol-4-yl)-2-(((3R,4S)-3-methyl-1-((1-methyl-1H-pyrazol-3-yl)sulfonyl)piperidin-4-yl)amino)pyrimidine-5-carbonitrile]
10 | > 7.30 | [2H]C([2H])([2H])NCc1ccc(-n2cc(-c3nc(N[C@H]4CCN(S(=O)(=O)c5cn(C)cn5)C[C@H]4C)ncc3C#N)cn2)c(Cl)c1 [Example 148, 4-(1-(2-Chloro-4-(((methyl-d3)amino)methyl)phenyl)-1H-pyrazol-4-yl)-2-(((3R,4S)-3-methyl-1-((1-methyl-1H-imidazol-4-yl)sulfonyl)piperidin-4-yl)amino)pyrimidine-5-carbonitrile]
11 | > 7.30 | [2H]C([2H])([2H])NCc1ccc(-n2cc(-c3nc(NC4CCN(S(=O)(=O)c5cnn(C)c5)CC4)ncc3C#N)cn2)c(C)n1 [Example 149, 2-((1-((1-Methyl-1H-pyrazol-4-yl)sulfonyl)piperidin-4-yl)amino)-4-(1-(2-methyl-6-(((methyl-d3)amino)methyl)pyridin-3-yl)-1H-pyrazol-4-yl)pyrimidine-5-carbonitrile]
12 | > 7.30 | [2H]C([2H])([2H])NCc1ccc(-n2cc(-c3nc(N[C@H]4CCN(S(=O)(=O)c5cn(C)cn5)C[C@H]4C)ncc3C#N)cn2)c(C)n1 [Example 150, 2-(((3R,4S)-3-Methyl-1-((1-methyl-1H-imidazol-4-yl)sulfonyl)piperidin-4-yl)amino)-4-(1-(2-methyl-6-(((methyl-d3)amino)methyl)pyridin-3-yl)-1H-pyrazol-4-yl)pyrimidine-5-carbonitrile]
13 | > 7.30 | Cc1nc(CNC(C)C)ccc1-n1cc(-c2nc(NC3CCN(S(=O)(=O)c4cn(C)cn4)CC3)ncc2C#N)cn1 [Example 151, 4-(1-(6-((Isopropylamino)methyl)-2-methylpyridin-3-yl)-1H-pyrazol-4-yl)-2-((1-((1-methyl-1H-imidazol-4-yl)sulfonyl)piperidin-4-yl)amino)pyrimidine-5-carbonitrile]
14 | > 7.30 | Cc1nc(CNC(C)(C)C)ccc1-n1cc(-c2nc(NC3CCN(S(=O)(=O)c4cn(C)cn4)CC3)ncc2C#N)cn1 [Example 152, 4-(1-(6-((tert-Butylamino)methyl)-2-methylpyridin-3-yl)-1H-pyrazol-4-yl)-2-((1-((1-methyl-1H-imidazol-4-yl)sulfonyl)piperidin-4-yl)amino)pyrimidine-5-carbonitrile]
15 | > 7.30 | Cc1nc(CNC(C)C)ccc1-n1cc(-c2nc(NC3CCN(S(=O)(=O)C4CC4)CC3)ncc2C#N)cn1 [Example 153, 2-((1-(Cyclopropylsulfonyl)piperidin-4-yl)amino)-4-(1-(6-((isopropylamino)methyl)-2-methylpyridin-3-yl)-1H-pyrazol-4-yl)pyrimidine-5-carbonitrile]
16 | > 7.30 | N#Cc1cnc(N[C@H]2CCN(S(=O)(=O)C3CC3)C[C@H]2F)nc1-c1cnn(-c2ccc(CN[C@H]3C[C@@H](C#N)C3)cc2Cl)c1 [Example 154, 4-(1-(2-Chloro-4-((((1s,3s)-3-cyanocyclobutyl)amino)methyl)phenyl)-1H-pyrazol-4-yl)-2-(((3R,4S)-1-(cyclopropylsulfonyl)-3-fluoropiperidin-4-yl)amino)pyrimidine-5-carbonitrile]
17 | > 7.30 | C[C@]1(NCc2ccc(-n3cc(-c4nc(N[C@H]5CCN(S(=O)(=O)C6CC6)C[C@H]5F)ncc4C#N)cn3)c(Cl)c2)C[C@H](O)C1 [Example 155, 4-(1-(2-chloro-4-((((1r,3r)-3-hydroxy-1-methylcyclobutyl)amino)methyl)phenyl)-1H-pyrazol-4-yl)-2-(((3R,4S)-1-(cyclopropylsulfonyl)-3-fluoropiperidin-4-yl)amino)pyrimidine-5-carbonitrile]
